The values that follow are results of earlier work, collected in patent US7011849B2, “Second release phase formulation” (Beecham Pharmaceuticals (Pte) Limited, priority 2000, dated 2006).

For this data set the following is noted: in vivo.

`CC1(C)S[C@@H]2[C@H](NC(=O)[C@H](N)c3ccc(O)cc3)C(=O)N2[C@H]1C(=O)O` [amoxicillin]: the elimination half-life result is “about 1.3 hours”.
